Experimental data as given in ChEMBL document CHEMBL5724914, “Linking interpersonal differences in gut microbiota composition and drug biotransformation activity” (2024).

Tests used:
[1] = human gut metagenome, 24 h, 2 µM
[2] = human gut metagenome, 24 h, 2 µM; remark: listed apart in the source
[3] = human gut metagenome, 24 h, 2 µM; remark: listed apart in the source
[4] = human gut metagenome, 24 h, 2 µM; remark: listed apart in the source
[5] = The drug is tested on WLS-077 corresponding to human gut metagenome with ENA study accession number: PRJEB37062 and ENA sample accession number: ERS12561750 for biotransformation under anaerobic condition. The drug concentrations were measured over 9 timepoints collected between 0 and 24 hours of incubation by liquid-chromatography-coupled mass spectrometry (LC–MS); details: 2 µM
[6] = human gut metagenome, 24 h, 2 µM; remark: listed apart in the source
[7] = The drug is tested on WLS-073 corresponding to human gut metagenome with ENA study accession number: PRJEB37062 and ENA sample accession number: ERS12561749 for biotransformation under anaerobic condition. The drug concentrations were measured over 9 timepoints collected between 0 and 24 hours of incubation by liquid-chromatography-coupled mass spectrometry (LC–MS); details: 2 µM
[8] = human gut metagenome, 24 h, 2 µM; remark: listed apart in the source
[9] = human gut metagenome, 24 h, 2 µM; remark: listed apart in the source
[10] = human gut metagenome, 24 h, 2 µM; remark: listed apart in the source
[11] = The drug is tested on WLS-220 corresponding to human gut metagenome with ENA study accession number: PRJEB37062 and ENA sample accession number: ERS12561769 for biotransformation under anaerobic condition. The drug concentrations were measured over 9 timepoints collected between 0 and 24 hours of incubation by liquid-chromatography-coupled mass spectrometry (LC–MS); details: 2 µM
[12] = human gut metagenome, 24 h, 2 µM; remark: listed apart in the source
[13] = human gut metagenome, 24 h, 2 µM; remark: listed apart in the source
[14] = human gut metagenome, 24 h, 2 µM; remark: listed apart in the source
[15] = The drug is tested on Z-026 corresponding to metagenome with ENA study accession number: PRJEB37062 and ENA sample accession number: ERS12561825 for biotransformation under anaerobic condition. The drug concentrations were measured over 9 timepoints collected between 0 and 24 hours of incubation by liquid-chromatography-coupled mass spectrometry (LC–MS); details: 2 µM
[16] = The drug is tested on Z-012 corresponding to metagenome with ENA study accession number: PRJEB37062 and ENA sample accession number: ERS12561812 for biotransformation under anaerobic condition. The drug concentrations were measured over 9 timepoints collected between 0 and 24 hours of incubation by liquid-chromatography-coupled mass spectrometry (LC–MS); details: 2 µM
[17] = human gut metagenome, 24 h, 2 µM; remark: listed apart in the source
[18] = The drug is tested on WLS-082 corresponding to human gut metagenome with ENA study accession number: PRJEB37062 and ENA sample accession number: ERS12561751 for biotransformation under anaerobic condition. The drug concentrations were measured over 9 timepoints collected between 0 and 24 hours of incubation by liquid-chromatography-coupled mass spectrometry (LC–MS); details: 2 µM
Further: call rule not given here.

| SMILES | Bacterial Biotransformation [1] | Bacterial Biotransformation [2] | Bacterial Biotransformation [3] | Bacterial Biotransformation [4] | Bacterial Biotransformation [5] | Bacterial Biotransformation [6] | Bacterial Biotransformation [7] | Bacterial Biotransformation [8] | Bacterial Biotransformation [9] | Bacterial Biotransformation [10] | Bacterial Biotransformation [11] | Bacterial Biotransformation [12] | Bacterial Biotransformation [13] | Bacterial Biotransformation [14] | Bacterial Biotransformation [15] | Bacterial Biotransformation [16] | Bacterial Biotransformation [17] | Bacterial Biotransformation [18] |
| --- | --- | --- | --- | --- | --- | --- | --- | --- | --- | --- | --- | --- | --- | --- | --- | --- | --- | --- |
| N[C@@H](Cc1ccc(N(CCCl)CCCl)cc1)C(=O)O | Compound metabolized | Compound metabolized | Compound NOT metabolized | Compound metabolized | Compound metabolized | Compound NOT metabolized | Compound metabolized | Compound NOT metabolized | Compound NOT metabolized | Compound NOT metabolized | Compound metabolized | – | – | – | – | – | – | – |
| CC#CCn1c(N2CCC[C@@H](N)C2)nc2c1c(=O)n(Cc1nc(C)c3ccccc3n1)c(=O)n2C [LINAGLIPTIN] | Compound NOT metabolized | Compound NOT metabolized | Compound NOT metabolized | Compound NOT metabolized | Compound NOT metabolized | Compound NOT metabolized | Compound metabolized | Compound NOT metabolized | Compound NOT metabolized | Compound NOT metabolized | Compound NOT metabolized | Compound NOT metabolized | Compound NOT metabolized | Compound NOT metabolized | – | – | – | – |
| CNNCc1ccc(C(=O)NC(C)C)cc1 [PROCARBAZINE] | Compound metabolized | Compound metabolized | Compound NOT metabolized | – | Compound NOT metabolized | Compound metabolized | Compound NOT metabolized | Compound NOT metabolized | Compound metabolized | Compound NOT metabolized | – | Compound metabolized | Compound NOT metabolized | Compound metabolized | Compound metabolized | Compound metabolized | – | – |
| CN(C/C=C/C#CC(C)(C)C)Cc1cccc2ccccc12 [TERBINAFINE] | Compound NOT metabolized | Compound NOT metabolized | Compound NOT metabolized | – | – | Compound NOT metabolized | – | Compound metabolized | Compound metabolized | Compound NOT metabolized | Compound NOT metabolized | Compound NOT metabolized | Compound NOT metabolized | Compound NOT metabolized | Compound NOT metabolized | Compound NOT metabolized | Compound NOT metabolized | Compound NOT metabolized |
